In the supplement of paper PMC9663587:

Key:
Flavopiridol [1] = compound: T1, CN1CC[C@H](c2c(O)cc(O)c3c(=O)cc(-c4ccccc4Cl)oc23)[C@H](O)C1 [Flavopiridol]; experiment: GR value, 72 h; higher = faster growth (1 = untreated, <0 = killing);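 note: breast cancer and non-malignant breast epithelial lines, nine half-log doses, viable cells counted by Hoechst and LIVE/DEAD dye imaging versus time-zero plates and DMSO controls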
Neratinib/HKI272 [2] = compound: T2, CCOc1cc2ncc(C#N)c(Nc3ccc(OCc4ccccn4)c(Cl)c3)c2cc1NC(=O)/C=C/CN(C)C [Neratinib/HKI272]; experiment: as above
[3] = compound: CCc1cnn2c(NCc3ccc[n+]([O-])c3)cc(N3CCCC[C@H]3CCO)nc12; experiment: increase in dead-cell fraction, 72 h; higher = more death;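 note: breast cancer cell lines in 384-well plates, stained with Hoechst plus LIVE/DEAD far red dye and imaged, cells above an LDR intensity threshold counted dead, Hoechst-negative corpses included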
[4] = compound: CC(=O)c1c(C)c2cnc(Nc3ccc(N4CCNCC4)cn3)nc2n(C2CCCC2)c1=O; experiment: as above
[5] = compound: CCN1CCN(Cc2ccc(Nc3ncc(F)c(-c4cc(F)c5nc(C)n(C(C)C)c5c4)n3)nc2)CC1; experiment: as above
Flavopiridol [6] = compound: T1, Flavopiridol; experiment: as above
YKL-5-124 = compound: C=CC(=O)Nc1ccc(C(=O)Nc2[nH]nc3c2CN(C(=O)N[C@H](CN(C)C)c2ccccc2)C3(C)C)cc1 [YKL-5-124]; experiment: as above
LEE011/Ribociclib = compound: CN(C)C(=O)c1cc2cnc(Nc3ccc(N4CCNCC4)cn3)nc2n1C1CCCC1 [LEE011/Ribociclib]; experiment: as above
Neratinib/HKI272 [7] = compound: T2, Neratinib/HKI272; experiment: as above
THZ531 = compound: CN(C)C/C=C/C(=O)Nc1ccc(C(=O)N2CCC[C@@H](Nc3ncc(Cl)c(-c4c[nH]c5ccccc45)n3)C2)cc1 [THZ531]; experiment: as above
THZ1 = compound: CN(C)C/C=C/C(=O)Nc1ccc(C(=O)Nc2cccc(Nc3ncc(Cl)c(-c4c[nH]c5ccccc45)n3)c2)cc1 [THZ1]; experiment: as above
BSJ-03-123 = compound: CC(=O)c1c(C)c2cnc(Nc3ccc(N4CCN(CCOCCOCCOCCNC(=O)COc5cccc6c5C(=O)N(C5CCC(=O)NC5=O)C6=O)CC4)cn3)nc2n(C2CCCC2)c1=O [BSJ-03-123]; experiment: as above

CAL120
GR value (Flavopiridol [1]; 0.0001 µM): 0.984 GR
GR value (Flavopiridol [1]; 0.0003162 µM): 0.934 GR
GR value (Flavopiridol [1]; 0.001 µM): 0.919 GR
GR value (Flavopiridol [1]; 0.003162 µM): 0.917 GR
GR value (Flavopiridol [1]; 0.01 µM): 0.901 GR
GR value (Flavopiridol [1]; 0.03162 µM): 0.88 GR
GR value (Flavopiridol [1]; 0.1 µM): 0.719 GR
GR value (Flavopiridol [1]; 0.3162 µM): 0.342 GR
GR value (Flavopiridol [1]; 1 µM): -0.0548 GR
GR value (Neratinib/HKI272 [2]; 0.0003162 µM): 0.996 GR
GR value (Neratinib/HKI272 [2]; 0.001 µM): 1.03 GR
GR value (Neratinib/HKI272 [2]; 0.003162 µM): 0.97 GR
GR value (Neratinib/HKI272 [2]; 0.01 µM): 0.973 GR
GR value (Neratinib/HKI272 [2]; 0.03162 µM): 0.999 GR
GR value (Neratinib/HKI272 [2]; 0.1 µM): 0.876 GR
GR value (Neratinib/HKI272 [2]; 0.3162 µM): 0.618 GR
GR value (Neratinib/HKI272 [2]; 1 µM): 0.355 GR
GR value (Neratinib/HKI272 [2]; 3.162 µM): -0.262 GR
increase in dead-cell fraction ([3]; 0.0001 µM): -0.0093
increase in dead-cell fraction ([3]; 0.0003162 µM): -0.0043
increase in dead-cell fraction ([3]; 0.001 µM): -0.0016
increase in dead-cell fraction ([3]; 0.003162 µM): 0.0101
increase in dead-cell fraction ([3]; 0.01 µM): 0.132
increase in dead-cell fraction ([3]; 0.03162 µM): 0.241
increase in dead-cell fraction ([3]; 0.1 µM): 0.233
increase in dead-cell fraction ([3]; 0.3162 µM): 0.25
increase in dead-cell fraction ([3]; 1 µM): 0.208
increase in dead-cell fraction ([4]; 0.0003162 µM): -0.0011
increase in dead-cell fraction ([4]; 0.001 µM): -0.0036
increase in dead-cell fraction ([4]; 0.003162 µM): 0.0022
increase in dead-cell fraction ([4]; 0.01 µM): -0.0072
increase in dead-cell fraction ([4]; 0.03162 µM): 0.0004
increase in dead-cell fraction ([4]; 0.1 µM): 0.0047
increase in dead-cell fraction ([4]; 0.3162 µM): 0.0049
increase in dead-cell fraction ([4]; 1 µM): 0.0051
increase in dead-cell fraction ([4]; 3.162 µM): 0.0096
increase in dead-cell fraction ([5]; 0.001 µM): -0.0028
increase in dead-cell fraction ([5]; 0.003162 µM): -0.0021
increase in dead-cell fraction ([5]; 0.01 µM): 0.0053
increase in dead-cell fraction ([5]; 0.03162 µM): 0.0134
increase in dead-cell fraction ([5]; 0.1 µM): 0.0398
increase in dead-cell fraction ([5]; 0.3162 µM): 0.0603
increase in dead-cell fraction ([5]; 1 µM): 0.146
increase in dead-cell fraction ([5]; 3.162 µM): 0.248
increase in dead-cell fraction ([5]; 10 µM): 0.249
increase in dead-cell fraction (Flavopiridol [6]; 0.0001 µM): -0.0013
increase in dead-cell fraction (Flavopiridol [6]; 0.0003162 µM): 0.002
increase in dead-cell fraction (Flavopiridol [6]; 0.001 µM): 0.0027
increase in dead-cell fraction (Flavopiridol [6]; 0.003162 µM): -0.0004
increase in dead-cell fraction (Flavopiridol [6]; 0.01 µM): -0.0008
increase in dead-cell fraction (Flavopiridol [6]; 0.03162 µM): 0.0016
increase in dead-cell fraction (Flavopiridol [6]; 0.1 µM): 0.0004
increase in dead-cell fraction (Flavopiridol [6]; 0.3162 µM): 0.0194
increase in dead-cell fraction (Flavopiridol [6]; 1 µM): 0.0425
increase in dead-cell fraction (YKL-5-124; 0.001 µM): 0.0168
increase in dead-cell fraction (YKL-5-124; 0.003162 µM): 0.0283
increase in dead-cell fraction (YKL-5-124; 0.01 µM): 0.0348
increase in dead-cell fraction (YKL-5-124; 0.03162 µM): 0.0304
increase in dead-cell fraction (YKL-5-124; 0.1 µM): 0.0343
increase in dead-cell fraction (YKL-5-124; 0.3162 µM): 0.0427
increase in dead-cell fraction (YKL-5-124; 1 µM): 0.0333
increase in dead-cell fraction (YKL-5-124; 3.162 µM): 0.0461
increase in dead-cell fraction (YKL-5-124; 10 µM): 0.0476
increase in dead-cell fraction (LEE011/Ribociclib; 0.001 µM): -0.0051
increase in dead-cell fraction (LEE011/Ribociclib; 0.003162 µM): -0.0023
increase in dead-cell fraction (LEE011/Ribociclib; 0.01 µM): 0.0009
increase in dead-cell fraction (LEE011/Ribociclib; 0.03162 µM): -0.0029
increase in dead-cell fraction (LEE011/Ribociclib; 0.1 µM): 0
increase in dead-cell fraction (LEE011/Ribociclib; 0.3162 µM): 0.001
increase in dead-cell fraction (LEE011/Ribociclib; 1 µM): -0.0006
increase in dead-cell fraction (LEE011/Ribociclib; 3.162 µM): 0.0024
increase in dead-cell fraction (LEE011/Ribociclib; 10 µM): 0.0041
increase in dead-cell fraction (Neratinib/HKI272 [7]; 0.0003162 µM): -0.0012
increase in dead-cell fraction (Neratinib/HKI272 [7]; 0.001 µM): -0.0046
increase in dead-cell fraction (Neratinib/HKI272 [7]; 0.003162 µM): -0.0039
increase in dead-cell fraction (Neratinib/HKI272 [7]; 0.01 µM): -0.0045
increase in dead-cell fraction (Neratinib/HKI272 [7]; 0.03162 µM): 0.0031
increase in dead-cell fraction (Neratinib/HKI272 [7]; 0.1 µM): -0.0024
increase in dead-cell fraction (Neratinib/HKI272 [7]; 0.3162 µM): 0.0027
increase in dead-cell fraction (Neratinib/HKI272 [7]; 1 µM): 0.0247
increase in dead-cell fraction (Neratinib/HKI272 [7]; 3.162 µM): 0.571
increase in dead-cell fraction (THZ531; 0.0001 µM): 0.0032
increase in dead-cell fraction (THZ531; 0.0003162 µM): -0.0012
increase in dead-cell fraction (THZ531; 0.001 µM): -0.0004
increase in dead-cell fraction (THZ531; 0.003162 µM): -0.0009
increase in dead-cell fraction (THZ531; 0.01 µM): -0.0022
increase in dead-cell fraction (THZ531; 0.03162 µM): 0.0046
increase in dead-cell fraction (THZ531; 0.1 µM): 0.0275
increase in dead-cell fraction (THZ531; 0.3162 µM): 0.0465
increase in dead-cell fraction (THZ531; 1 µM): 0.0403
increase in dead-cell fraction (THZ1; 0.0001 µM): -0.0036
increase in dead-cell fraction (THZ1; 0.0003162 µM): 0.0008
increase in dead-cell fraction (THZ1; 0.001 µM): -0.0008
increase in dead-cell fraction (THZ1; 0.003162 µM): 0.0033
increase in dead-cell fraction (THZ1; 0.01 µM): 0.0048
increase in dead-cell fraction (THZ1; 0.03162 µM): 0.0266
increase in dead-cell fraction (THZ1; 0.1 µM): 0.0311
increase in dead-cell fraction (THZ1; 0.3162 µM): 0.0265
increase in dead-cell fraction (THZ1; 1 µM): 0.0708
increase in dead-cell fraction (BSJ-03-123; 0.001 µM): -0.0001
increase in dead-cell fraction (BSJ-03-123; 0.003162 µM): 0.0019
increase in dead-cell fraction (BSJ-03-123; 0.01 µM): -0.0014
increase in dead-cell fraction (BSJ-03-123; 0.03162 µM): -0.0007
increase in dead-cell fraction (BSJ-03-123; 0.1 µM): -0.0013
increase in dead-cell fraction (BSJ-03-123; 0.3162 µM): 0.0033
increase in dead-cell fraction (BSJ-03-123; 1 µM): 0.004
increase in dead-cell fraction (BSJ-03-123; 3.162 µM): 0.0059
increase in dead-cell fraction (BSJ-03-123; 10 µM): 0.0482
